Reference: patent US11214594B2, “Antimicrobial peptide having synergistic antibacterial effect with antibiotics on multidrug resistant bacteria, and use thereof” (priority 2016, dated 2022)
Read-outs that look alike come from different tables or passages of the source. Where a SMILES comes first, the peptide text is derived from it. [ ]: non-standard residue; d: D form.

What was measured:
[1] = test system: MDRST 8007; assay: Minimal inhibitory concentration (MIC), single agent; format: cell-based, Salmonella typhimurium; conditions: agent alone
In short: (§1)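 Each strain is brought to 2×10^6 CFU in nutrient-sufficient Mueller-Hinton medium and dispensed into wells. Peptide solutions, stepwise diluted 2:1 in the same medium, are then added. The minimal concentration preventing growth gives the MIC.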

[2] = test system: E. coli; assay: MIC of antibiotic during combined treatment with antimicrobial peptide; format: cell-based, Escherichia coli; conditions: for Antibiotic MIC, Erythromycin / Antibiotic MIC, Linezolid / Antibiotic MIC, Vancomycin: E. coli
In short: (§2)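 Antibiotic diluted in MH medium, dispensed per well with peptide; setup repeated with roles reversed; MIC read per combination.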

[3] = test system: MDRAB 12035; assay: as above; format: cell-based, Acinetobacter baumannii
In short: (§3)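 Antibiotic MIC came from antibiotic dilutions added to bacteria (2×10^6 CFU/ml, MH medium) already combined with peptide serially diluted 2:1 from its own MIC. Swapping the roles of the two agents gave the peptide MIC.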

[4] = test system: A. baumannii; assay: MIC of antimicrobial peptide during combined treatment with antibiotic; format: cell-based, Acinetobacter baumannii
In short: as §3

[5] = test system: MDRAB 12035; assay: as above; format: cell-based, Acinetobacter baumannii
In short: as §3

[6] = test system: A. baumannii; assay: MIC of antibiotic during combined treatment with antimicrobial peptide; format: cell-based, Acinetobacter baumannii; conditions: A. baumannii
In short: as §2

[7] = test system: A. baumannii; assay: microbe, parasite or virus in culture; format: cell-based, Acinetobacter baumannii
In short: as §1

[8] = test system: MDRAB 12035; assay: microbe, parasite or virus in culture; format: cell-based, Acinetobacter baumannii
In short: as §1

[9] = test system: P. aeruginosa; assay: microbe, parasite or virus in culture; format: cell-based, Pseudomonas aeruginosa
In short: as §1

[10] = test system: S. epidermidis; assay: microbe, parasite or virus in culture; format: cell-based, Staphylococcus epidermidis
In short: as §1

[11] = test system: E. coli; format: cell-based, Escherichia coli; conditions: E. coli
In short: as §3

[12] = test system: MDREC 1229; format: cell-based, Escherichia coli
In short: as §3

[13] = peptide treatment concentration 1 μg/ml
[14] = peptide treatment concentration 2 μg/ml
[15] = peptide treatment concentration 4 μg/ml
[16] = peptide treatment concentration 6 μg/ml
[17] = peptide treatment concentration 8 μg/ml
[18] = peptide treatment concentration 16 μg/ml
[19] = peptide treatment concentration 32 μg/ml
[20] = peptide treatment concentration 64 μg/ml
[21] = erythromycin 4 μg/ml (Conc./MIC 1/8)
[22] = erythromycin 8 μg/ml (Conc./MIC 1/4)
[23] = erythromycin 16 μg/ml (Conc./MIC 1/2)
[24] = erythromycin 32 μg/ml (Conc./MIC 1)
[25] = vancomycin 512 μg/ml (Conc./MIC 1/2)
[26] = vancomycin 1024 μg/ml (Conc./MIC 1)
[27] = linezolid 64 μg/ml (Conc./MIC 1/8)
[28] = linezolid 512 μg/ml (Conc./MIC 1)
[29] = combined with peptide at 1 μg/ml
[30] = combined with peptide at 2 μg/ml
[31] = combined with peptide at 4 μg/ml
[32] = combined with peptide at 6 μg/ml
[33] = combined with peptide at 8 μg/ml
[34] = combined with peptide at 16 μg/ml
[35] = combined with peptide at 32 μg/ml
[36] = combined with peptide at 64 μg/ml

CC[C@H](C)[C@H](NC(=O)[C@H](CCCCN)NC(=O)[C@H](Cc1c[nH]c2ccccc12)NC(=O)[C@@H](N)CCCNC(=N)N)C(=O)N[C@@H](Cc1ccccc1)C(=O)N[C@@H](CCCCN)C(=O)N[C@@H](CCCCN)C(=O)N[C@H](C(=O)N[C@H](CCCCN)C(=O)N[C@@H](CCCCN)C(=O)N[C@@H](CC(C)C)C(=O)N[C@@H](CC(C)C)C(=O)N[C@@H](Cc1c[nH]cn1)C(=O)N[C@@H](CCCCN)C(=O)N[C@@H](C)C(=O)N[C@@H](CCCCN)C(=O)N[C@@H](CCCCN)C(=O)N[C@@H](Cc1c[nH]c2ccccc12)C(N)=O)[C@@H](C)CC [PapMA-18, RWK IFK KIk KLL HKA KKW-NH2] (H-RWKIFKKI[dK]KLLHKAKKW-NH2; N-terminus assumed)
0.125 µg/mL: Antibiotic MIC, Erythromycin ([2]; erythromycin combined with peptide at 32 μg/ml)
2 µg/mL: Erythromycin MIC during combined treatment with peptide [3, 17] | Peptide MIC during treatment with antibiotic ([4]; linezolid […] (Conc./MIC 1/2)) | Peptide MIC during treatment with vancomycin [5, 25] | Antibiotic MIC, Erythromycin [6, 32] | Peptide MIC during treatment with antibiotic ([12]; erythromycin 32 μg/ml (Conc./MIC 1/8)) | Peptide MIC during treatment with antibiotic ([12]; erythromycin 64 μg/ml (Conc./MIC 1/4)) | Peptide MIC during treatment with antibiotic ([12]; erythromycin […] (Conc./MIC 1/2)) | Peptide MIC during treatment with antibiotic [12, 25]
32 µg/mL: Antibiotic MIC, Erythromycin ([2]; erythromycin combined with peptide at 2 μg/ml) | Antibiotic MIC, Vancomycin ([2]; vancomycin combined with peptide at 6 μg/ml) | Erythromycin MIC during combined treatment with peptide [3, 13] | Erythromycin MIC during combined treatment with peptide [3, 14] | Linezolid MIC during combined treatment with peptide [3, 16] | Vancomycin MIC during combined treatment with peptide [3, 16] | Antibiotic MIC, Erythromycin [6, 29] | Antibiotic MIC, Erythromycin [6, 30] | Antibiotic MIC, Linezolid [6, 32] | Antibiotic MIC, Vancomycin [6, 32] | Minimal inhibitory concentration MIC [7] | Peptide MIC, peptide alone [7] | Minimal inhibitory concentration MIC [8] | Peptide MIC, peptide alone [8] | Minimal inhibitory concentration MIC [9]
higher level than the PapMA-1 peptide: Synergistic effect of antibacterial activity with existing antibiotics compared with PapMA-1 ([2]; E. coli and MDREC1229)
>128 µg/mL: Antibiotic MIC, Linezolid ([2]; linezolid combined with peptide at 1 μg/ml) | Antibiotic MIC, Linezolid ([2]; linezolid combined with peptide at 2 μg/ml) | Antibiotic MIC, Vancomycin ([2]; vancomycin combined with peptide at 1 μg/ml) | Antibiotic MIC, Vancomycin ([2]; vancomycin combined with peptide at 2 μg/ml) | Antibiotic MIC, Vancomycin ([2]; vancomycin combined with peptide at 4 μg/ml) | Linezolid MIC during combined treatment with peptide [3, 13] | Vancomycin MIC during combined treatment with peptide [3, 13] | Linezolid MIC during combined treatment with peptide [3, 14] | Vancomycin MIC during combined treatment with peptide [3, 14] | Antibiotic MIC, Linezolid [6, 29] | Antibiotic MIC, Vancomycin [6, 29] | Antibiotic MIC, Vancomycin [6, 30] | Minimal inhibitory concentration MIC [10]
64 µg/mL: Minimal inhibitory concentration MIC [1] | Antibiotic MIC, Linezolid ([2]; linezolid combined with peptide at 4 μg/ml) | Linezolid MIC during combined treatment with peptide [3, 15] | Antibiotic MIC, Linezolid [6, 31]
0 µg/mL: Antibiotic MIC, Erythromycin ([2]; erythromycin combined with peptide at 64 μg/ml) | Antibiotic MIC, Linezolid ([2]; linezolid combined with peptide at 64 μg/ml) | Antibiotic MIC, Vancomycin ([2]; vancomycin combined with peptide at 64 μg/ml) | Erythromycin MIC during combined treatment with peptide [3, 19] | Linezolid MIC during combined treatment with peptide [3, 19] | Vancomycin MIC during combined treatment with peptide [3, 19] | Erythromycin MIC during combined treatment with peptide [3, 20] | Linezolid MIC during combined treatment with peptide [3, 20] | Vancomycin MIC during combined treatment with peptide [3, 20] | Peptide MIC during treatment with antibiotic [4, 24] | Peptide MIC during treatment with antibiotic ([4]; linezolid […] (Conc./MIC 1)) | Peptide MIC during treatment with antibiotic [4, 26] | Peptide MIC during treatment with erythromycin [5, 24] | Peptide MIC during treatment with linezolid [5, 28] | Antibiotic MIC, Erythromycin [6, 35] | Antibiotic MIC, Linezolid [6, 35] | Antibiotic MIC, Vancomycin [6, 35] | Antibiotic MIC, Erythromycin [6, 36] | Antibiotic MIC, Linezolid [6, 36] | Antibiotic MIC, Vancomycin [6, 36] | Peptide MIC ([11]; with Erythromycin […] (Conc./MIC 1)) | Peptide MIC ([11]; with Linezolid […] (Conc./MIC 1)) | Peptide MIC ([11]; with Vancomycin 1024 μg/ml (Conc./MIC 1)) | Peptide MIC during treatment with antibiotic ([12]; erythromycin […] (Conc./MIC 1)) | Peptide MIC during treatment with antibiotic [12, 28]
16 µg/mL: Antibiotic MIC, Linezolid ([2]; linezolid combined with peptide at 6 μg/ml) | Antibiotic MIC, Vancomycin ([2]; vancomycin combined with peptide at 8 μg/ml) | Erythromycin MIC during combined treatment with peptide [3, 15] | Linezolid MIC during combined treatment with peptide [3, 17] | Vancomycin MIC during combined treatment with peptide [3, 17] | Vancomycin MIC during combined treatment with peptide [3, 18] | Antibiotic MIC, Erythromycin [6, 31] | Antibiotic MIC, Linezolid [6, 33] | Antibiotic MIC, Vancomycin [6, 33] | Antibiotic MIC, Vancomycin [6, 34]
0.5 µg/mL: Erythromycin MIC during combined treatment with peptide [3, 18] | Peptide MIC during treatment with antibiotic ([4]; vancomycin […] (Conc./MIC 1/4)) | Antibiotic MIC, Erythromycin [6, 34]
1 µg/mL: Antibiotic MIC, Erythromycin ([2]; erythromycin combined with peptide at 6 μg/ml) | Antibiotic MIC, Erythromycin ([2]; erythromycin combined with peptide at 8 μg/ml) | Peptide MIC during treatment with linezolid ([5]; linezolid […] (Conc./MIC 1/2)) | Peptide MIC during treatment with vancomycin [5, 26] | Antibiotic MIC, Erythromycin [6, 33] | Peptide MIC during treatment with antibiotic ([12]; linezolid […] (Conc./MIC 1/2)) | Peptide MIC during treatment with antibiotic [12, 26]
8 µg/mL: Antibiotic MIC, Erythromycin ([2]; erythromycin combined with peptide at 4 μg/ml) | Antibiotic MIC, Linezolid ([2]; linezolid combined with peptide at 8 μg/ml) | Antibiotic MIC, Linezolid ([2]; linezolid combined with peptide at 16 μg/ml) | Antibiotic MIC, Vancomycin ([2]; vancomycin combined with peptide at 16 μg/ml) | Linezolid MIC during combined treatment with peptide [3, 18] | Peptide MIC during treatment with antibiotic ([4]; linezolid 32 μg/ml (Conc./MIC 1/8)) | Peptide MIC during treatment with antibiotic ([12]; vancomycin […] (Conc./MIC 1/8))
0.25 µg/mL: Antibiotic MIC, Erythromycin ([2]; erythromycin combined with peptide at 16 μg/ml) | Peptide MIC during treatment with antibiotic [4, 25]
4 µg/mL: Antibiotic MIC, Linezolid ([2]; linezolid combined with peptide at 32 μg/ml) | Antibiotic MIC, Vancomycin ([2]; vancomycin combined with peptide at 32 μg/ml) | Erythromycin MIC during combined treatment with peptide [3, 16] | Peptide MIC during treatment with antibiotic [4, 21] | Peptide MIC during treatment with antibiotic [4, 22] | Peptide MIC during treatment with antibiotic [4, 23] | Peptide MIC during treatment with antibiotic ([4]; linezolid 64 μg/ml (Conc./MIC 1/4)) | Peptide MIC during treatment with antibiotic ([4]; vancomycin […] (Conc./MIC 1/8)) | Peptide MIC during treatment with erythromycin [5, 21] | Peptide MIC during treatment with erythromycin [5, 22] | Peptide MIC during treatment with erythromycin [5, 23] | Peptide MIC during treatment with linezolid [5, 27] | Peptide MIC during treatment with linezolid ([5]; linezolid […] (Conc./MIC 1/4)) | Peptide MIC during treatment with vancomycin ([5]; vancomycin […] (Conc./MIC 1/4)) | Peptide MIC during treatment with vancomycin ([5]; vancomycin […] (Conc./MIC 1/8)) | Antibiotic MIC, Linezolid [6, 34] | Peptide MIC during treatment with antibiotic [12, 27] | Peptide MIC during treatment with antibiotic ([12]; linezolid […] (Conc./MIC 1/4)) | Peptide MIC during treatment with antibiotic ([12]; vancomycin […] (Conc./MIC 1/4))
128 µg/mL: Antibiotic MIC, Erythromycin ([2]; erythromycin combined with peptide at 1 μg/ml) | Vancomycin MIC during combined treatment with peptide [3, 15] | Antibiotic MIC, Linezolid [6, 30] | Antibiotic MIC, Vancomycin [6, 31]
